Patent publication US8178577B2, “Tricyclic derivatives as potent and selective histone deacetylase inhibitors” (Shenzhen Chipscreen Biosciences Ltd., priority 2008, dated 2012)

Target: T1, (Homo sapiens, UniProt Q9UBN7)
T1 construct: endogenous in cells; host or cells: A549
T1 sequence (Q9UBN7 1-1215): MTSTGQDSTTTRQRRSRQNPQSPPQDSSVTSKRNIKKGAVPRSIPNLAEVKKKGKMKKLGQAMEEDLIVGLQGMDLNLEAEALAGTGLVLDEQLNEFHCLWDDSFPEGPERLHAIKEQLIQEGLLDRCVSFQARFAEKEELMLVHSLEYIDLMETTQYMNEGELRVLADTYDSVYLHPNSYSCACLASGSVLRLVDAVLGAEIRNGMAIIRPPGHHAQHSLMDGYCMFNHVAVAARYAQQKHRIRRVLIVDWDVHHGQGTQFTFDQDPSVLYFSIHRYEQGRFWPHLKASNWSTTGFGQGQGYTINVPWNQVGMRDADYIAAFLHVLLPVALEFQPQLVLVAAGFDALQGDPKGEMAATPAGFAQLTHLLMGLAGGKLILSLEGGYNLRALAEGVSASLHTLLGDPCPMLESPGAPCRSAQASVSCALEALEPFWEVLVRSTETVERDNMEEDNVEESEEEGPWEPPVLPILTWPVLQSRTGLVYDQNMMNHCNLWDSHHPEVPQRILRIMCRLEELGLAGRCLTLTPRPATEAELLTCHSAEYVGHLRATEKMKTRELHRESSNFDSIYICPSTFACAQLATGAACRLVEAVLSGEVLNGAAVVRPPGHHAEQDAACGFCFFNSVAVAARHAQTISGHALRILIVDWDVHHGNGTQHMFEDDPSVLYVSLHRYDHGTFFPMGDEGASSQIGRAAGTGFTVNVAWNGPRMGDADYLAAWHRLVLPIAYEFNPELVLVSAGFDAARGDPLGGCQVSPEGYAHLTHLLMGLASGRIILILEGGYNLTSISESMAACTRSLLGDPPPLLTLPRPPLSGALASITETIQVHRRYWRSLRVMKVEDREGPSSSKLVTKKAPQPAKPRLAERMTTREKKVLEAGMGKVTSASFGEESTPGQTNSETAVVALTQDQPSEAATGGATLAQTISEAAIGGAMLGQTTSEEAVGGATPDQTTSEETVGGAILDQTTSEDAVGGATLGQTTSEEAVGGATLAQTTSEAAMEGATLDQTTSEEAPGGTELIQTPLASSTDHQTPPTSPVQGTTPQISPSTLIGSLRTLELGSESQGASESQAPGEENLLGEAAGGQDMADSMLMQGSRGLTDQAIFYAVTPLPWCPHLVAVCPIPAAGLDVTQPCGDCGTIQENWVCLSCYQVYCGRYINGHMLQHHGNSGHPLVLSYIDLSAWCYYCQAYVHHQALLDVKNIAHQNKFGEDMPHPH
Experiment: Cytoblot assay of acetylation of α-tubulin in A549 cells
Type: cell-based
Conditions: 24 hours
Procedure: This assay is used to measure in vivo inhibition of HDAC6 in a cytoblot assay.
• 1. […] Compounds were added and incubated for 24 hours at 37° C. • 3.

SMILES | Fold of tubulin acetylation (HDAC7 at 10 μM) [Fold]
Nc1ccccc1NC(=O)CCCCCNC(=O)C=C1c2ccccc2-c2ccccc21 [Example 13, 6-(2-(9H-fluoren-9-ylidene)acetamido)-N-(2-aminophenyl)hexanamide] | 0.74
Nc1cc(F)ccc1NC(=O)CCCCCNC(=O)C=C1c2ccccc2-c2ccccc21 [Example 12, 6-(2-(9H-fluoren-9-ylidene)acetamido)-N-(2-amino-4-fluorophenyl)hexanamide] | 0.79
